Test system: angioedema in CSU patients
Experiment: Phase 2 CSU study: angioedema activity score over 7 days (AAS7)
Format: in vivo, human
Details: for Non-responder n (%), AAS7 = 0 / OR (95% CI) for rilzabrutinib vs. placebo, AAS7 = 0 / RRD (%) for rilzabrutinib vs. placebo (95% CI), AAS7 = 0 / Responder n (%), AAS7 = 0: outlier removed
From the text: The study comprises a 12 week, randomized, double-blind, placebo-controlled, multi-center, dose-ranging efficacy and safety phase, followed by a 40 week open label extension (OLE) phase (see FIG. 1). The study consists of three phases and an optional OLE phase. […] The weekly angioedema activity score (AAS7) was proposed as a tertiary endpoint. […] Patients were to complete the AAS using the e-diary. The e-diary was to be used once daily on the same time of each day recording of participant's answers to the angioedema activity score over 7 days (AAS7) questionnaire.

[1] = 400 mg TID, Week 1, ITT, angioedema at baseline
[2] = 400 mg TID, Week 1, omalizumab-naïve
[3] = 400 mg TID, Week 1, omalizumab-naïve, angioedema at baseline
[4] = 400 mg TID, Week 2, ITT, angioedema at baseline
[5] = 400 mg TID, Week 2, omalizumab-naïve
[6] = 400 mg TID, Week 2, omalizumab-naïve, angioedema at baseline
[7] = 400 mg TID, Week 3, ITT, angioedema at baseline
[8] = 400 mg TID, Week 3, omalizumab-naïve
[9] = 400 mg TID, Week 3, omalizumab-naïve, angioedema at baseline
[10] = 400 mg TID, Week 4, ITT, angioedema at baseline
[11] = 400 mg TID, Week 4, omalizumab-naïve

Compound: CC(C)(C=C(C#N)C(=O)N1CCC[C@@H](n2nc(-c3ccc(Oc4ccccc4)cc3F)c3c(N)ncnc32)C1)N1CCN(C2COC2)CC1 [rilzabrutinib, (R)-2-[3-[4-amino-3-(2-fluoro-4-phenoxy-phenyl)pyrazolo[3,4-d]pyrimidin-1-yl]piperidine-1-carbonyl]-4-methyl-4-[4-(oxetan-3-yl)piperazin-1-yl]pent-2-enenitrile]
- Participants with AAS7 = 0, Responder n (%) (400 mg QPM, Week 12, omalizumab-naïve, angioedema at baseline): 6 (22.2) n (%)
- LS mean change from baseline in AAS7 at Week 12 (400 mg TID, ITT population, angioedema at baseline): −43.36 points
- AAS7 % Change difference for rilzabrutinib vs. placebo LS Mean (95% CI) [1]: −34.55 (−66.00, −3.09) %
- AAS7 % Change from baseline LS Mean (SE) [1]: −54.51 (9.77) %
- AAS7 Change difference for rilzabrutinib vs. placebo LS Mean (95% CI) [1]: −15.05 (−28.44, −1.67)
- AAS7 Change from baseline LS Mean (SE) [1]: −29.55 (4.16)
- AAS7 Post-baseline Mean (SD) [1]: 17.50 (22.29)
- Non-responder n (%), AAS7 = 0 [2]: 16 (47.1) n (%)
- OR (95% CI) for rilzabrutinib vs. placebo, AAS7 = 0 [2]: 2.576
- RRD (%) for rilzabrutinib vs. placebo (95% CI), AAS7 = 0 [2]: 21.8 %
- Responder n (%), AAS7 = 0 [2]: 18 (52.9) n (%)
- AAS7 % Change difference for rilzabrutinib vs. placebo LS Mean (95% CI) [3]: −36.35 (−71.01, −1.69) %
- AAS7 % Change from baseline LS Mean (SE) [3]: −53.40 (10.59) %
- AAS7 = 0, Non-responder n (%) [3]: 16 (69.6) n (%)
- AAS7 = 0, OR (95% CI) for rilzabrutinib vs. placebo [3]: 9.250
- AAS7 = 0, RRD (%) for rilzabrutinib vs. placebo (95% CI) [3]: 21.8 %
- AAS7 Change difference for rilzabrutinib vs. placebo LS Mean (95% CI) [3]: −16.03 (−30.69, −1.38)
- AAS7 Change from baseline LS Mean (SE) [3]: −29.80 (4.48)
- AAS7 Post-baseline Mean (SD) [3]: 18.96 (23.24)
- Participants with AAS7 = 0, Responder n (%) [3]: 7 (30.4) n (%)
- AAS7 % Change from baseline LS Mean (SE) [4]: −60.12 (12.38) %
- AAS7 Change difference for rilzabrutinib vs. placebo LS Mean (95% CI) [4]: −11.45 (−23.02, 0.12)
- AAS7 Change from baseline LS Mean (SE) [4]: −32.35 (4.37)
- AAS7 Post-baseline Mean (SD) [4]: 15.52 (20.15)
- Non-responder n (%), AAS7 = 0 [5]: 16 (47.1) n (%)
- OR (95% CI) for rilzabrutinib vs. placebo, AAS7 = 0 [5]: 1.556
- RRD (%) for rilzabrutinib vs. placebo (95% CI), AAS7 = 0 [5]: 10.2 %
- Responder n (%), AAS7 = 0 [5]: 18 (52.9) n (%)
- AAS7 % Change difference for rilzabrutinib vs. placebo LS Mean (95% CI) [6]: −22.03 (−57.92, 13.85) %
- AAS7 % Change from baseline LS Mean (SE) [6]: −59.25 (13.33) %
- AAS7 = 0, Non-responder n (%) [6]: 14 (60.9) n (%)
- AAS7 = 0, OR (95% CI) for rilzabrutinib vs. placebo [6]: 1.922
- AAS7 = 0, RRD (%) for rilzabrutinib vs. placebo (95% CI) [6]: 12.9 %
- AAS7 Post-baseline Mean (SD) [6]: 17.03 (20.90)
- Participants with AAS7 = 0, Responder n (%) [6]: 9 (39.1) n (%)
- AAS7 % Change difference for rilzabrutinib vs. placebo LS Mean (95% CI) [7]: −24.93 (−66.27, 16.41) %
- AAS7 % Change from baseline LS Mean (SE) [7]: −73.45 (15.58) %
- AAS7 Change difference for rilzabrutinib vs. placebo LS Mean (95% CI) [7]: −12.00 (−23.87, −0.13)
- AAS7 Change from baseline LS Mean (SE) [7]: −36.15 (4.48)
- AAS7 Post-baseline Mean (SD) [7]: 13.26 (21.30)
- Non-responder n (%), AAS7 = 0 [8]: 12 (35.3) n (%)
- OR (95% CI) for rilzabrutinib vs. placebo, AAS7 = 0 [8]: 3.010
- RRD (%) for rilzabrutinib vs. placebo (95% CI), AAS7 = 0 [8]: 26.5 %
- Responder n (%), AAS7 = 0 [8]: 22 (64.7) n (%)
- AAS7 % Change difference for rilzabrutinib vs. placebo LS Mean (95% CI) [9]: −25.10 (−70.77, 20.57) %
- AAS7 % Change from baseline LS Mean (SE) [9]: −72.78 (16.93) %
- AAS7 = 0, Non-responder n (%) [9]: 11 (47.8) n (%)
- AAS7 = 0, OR (95% CI) for rilzabrutinib vs. placebo [9]: 3.063
- AAS7 = 0, RRD (%) for rilzabrutinib vs. placebo (95% CI) [9]: 22.5 %
- AAS7 Post-baseline Mean (SD) [9]: 14.08 (22.48)
- Participants with AAS7 = 0, Responder n (%) [9]: 12 (52.2) n (%)
- AAS7 % Change difference for rilzabrutinib vs. placebo LS Mean (95% CI) [10]: −41.77 (−78.55, −4.98) %
- AAS7 % Change from baseline LS Mean (SE) [10]: −78.35 (13.78) %
- AAS7 Change difference for rilzabrutinib vs. placebo LS Mean (95% CI) [10]: −15.67 (−27.11, −4.22)
- AAS7 Change from baseline LS Mean (SE) [10]: −38.27 (4.30)
- AAS7 Post-baseline Mean (SD) [10]: 11.20 (15.95)
- Non-responder n (%), AAS7 = 0 [11]: 18 (52.9) n (%)
- RRD (%) for rilzabrutinib vs. placebo (95% CI), AAS7 = 0 [11]: 1.1 %
- Responder n (%), AAS7 = 0 [11]: 16 (47.1) n (%)

From patent US20260256792A1, “TREATMENT OF CHRONIC SPONTANEOUS URTICARIA BY ADMINISTERING (R)-2-[3-[4-AMINO-3-(2-FLUORO-4-PHENOXY-PHENYL)PYRAZOLO[3,4-D]PYRIMIDIN-1-YL]PIPERIDINE-1-CARBONYL]-4-METHYL-4-[4-(OXETAN-3-YL)PIPERAZIN-1-YL]PENT-2-ENENITRILE” (priority 2023, published 2026)
